Target: T1, GFP-tagged TRIM24 in HeLa cells (Homo sapiens, UniProt O15164)
T1 construct: PB-TRIM24 PHD and bromodomain of TRIM24; expressed in transfected cells; host or cells: HeLa
T1 sequence (O15164 810-1050 limits assumed): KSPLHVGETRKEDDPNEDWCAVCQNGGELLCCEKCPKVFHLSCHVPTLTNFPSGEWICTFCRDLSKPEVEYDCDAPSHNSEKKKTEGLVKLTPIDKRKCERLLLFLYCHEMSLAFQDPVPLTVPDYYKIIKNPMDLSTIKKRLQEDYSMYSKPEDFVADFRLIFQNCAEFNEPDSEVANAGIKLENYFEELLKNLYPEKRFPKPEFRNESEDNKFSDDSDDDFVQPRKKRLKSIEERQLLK
Test: GFP version of the in situ cell extraction assay
Format: cell-based
From the text: In an HTS setting, we further simplified the in situ cell extraction procedure by replacing the indirect IF step (e.g., anti-FLAG) with cells engineered to express fluorescent moieties (e.g., GFP) fused to the protein target of interest (Additional file 1: Figure S5). In this format, the assay has minimal time and reagent costs associated with HTS operation, since no further liquid handling or processing steps are needed after detergent extraction and fixation. […] This is particularly noteworthy for two orthogonal assays that monitor either the displacement of TRIM24 from chromatin/nuclear structures or directly measure TRIM24/histone-H3 dissociation in cells.
OV90 or HeLa cells (20,000 cells/100 µL) were seeded into 96-well plates (Corning Costar #3603) using RPMI or DMEM medium, respectively, supplemented with 10 % FBS and grown overnight. Test agents were serially diluted in DMSO (with or without SAHA) to generate 10X master compound plates. From here, 11 µL was transferred into each well containing 100 µL of growth media followed by shaking on a rotation table (15 min, 300 rpm at RT) and incubation at 37 °C for 2 h. Plates were washed once with PBS (150 µL/well) and then with cold, freshly prepared Cytoskeleton (CSK) Buffer (10 mM PIPES, 300 mM Sucrose, 100 mM NaCl, 3 mM MgCl2; pH = 6.8). Immediately thereafter, soluble, non-chromatin-bound proteins were extracted by addition of cold CSK Buffer supplemented with 0.5 % Triton X-100 (150 µL per well) for 10 min at 4 °C followed by 4 % paraformaldehyde fixation (10 min at RT) (Additional file 1: Table S3). […]
number of fields and the number of cells in 96- and 384-well format that is enough for analysis.
Figure S5. HTS-friendly GFP-version of the in situ cell extraction assay. (A) In situ cell extraction […]
cells were treated with TRIM24i in 96-well plate using concentration range from 20 nM to 100
µM. […] EC50 curve was calculated by Harmony software during the scan. […]
Figure S6. […] Extraction buffer was added to the wells and each field of view was monitored every 3 minutes during 15 minutes. […]

SMILES: Cc1nc(S(=O)(=O)Nc2cc3c(cc2Oc2cccc(OCC(C)C)c2)n(C)c(=O)n3C)cn1C [IACS-6558, N-{1,3-dimethyl-6-[3-(2-methylpropoxy)phenoxy]-2-oxo-2,3-dihydro-1H-1,3-benzodiazol-5-yl}-1,2-dimethyl-1H-imidazole-4-sulfonamide]
- EC50 (HeLa cells expressing GFP-tagged TRIM24, 1 h incubation): 2.3 µM
- Displacement of TRIM24-GFP from chromatin (after extraction): full displacement
- Time to displacement of TRIM24-GFP from chromatin (data not shown): ≤ 1 min

Reference: PMC4578755, “Development of novel cellular histone-binding and chromatin-displacement assays for bromodomain drug discovery” (Epigenetics & Chromatin, 2015)
